From US5189144A, “Human calpastatin-like polypeptide” (Takara Shuzo Co., Ltd., priority 1989, dated 1993)
“Also recorded” adds a separate entry of the source. No end group written: not given here.

system: calpain; test: assay of calpain inhibition (casein substrate, acid-soluble fraction read at 280 nm); assay type: biochemical; conditions: 15 min at 30° C. after adding calcium chloride, absorbance at 280 nm of the supernatant, profiles only in FIGS. 3 and 4
Description: Confirmation of expression can be done by the measurement of the inhibition of calpain, as in the measurement done with casein as the substrate, with extraction from a culture fluid of E. coli, and measurement of the decrease in the acid-soluble fraction by the use of spectroscopy.
The assay of calpain inhibition was done as described below (A. Kitahara et al., J. Biochem., 95, 1759-1766, 1984). First, 10 μl of the sample 2.5 μl of calpain at the concentration of 1 mg/ml, 40 μl of 2% casein in imidazole, and 20 μl of crysteine at the concentration of 6 mg/ml were mixed together, giving a total volume of 180 μl. Next, the mixture was treated for 5 min at 30° C., after which 20 μl of 50 mM calcium chloride was added, and the mixture was incubated for 15 min at 30° C. Then 200 μl of 5% trichloroacetic acid was added to stop the reaction, and the mixture was centrifuged at 12,000 rpm for 10 min. The supernatant was obtained, and its absorbance at 280 nm was measured, from which the inhibitory activity toward calpain was calculated.

Row | Sequence | inhibitory activity toward calpain
1 | DPMSSTYIEELGKREVTIPPKYRELL [polypeptide of 26 amino acids] | can inhibit calpain; also recorded: had calpastatin-like activity
2 | TYIEELGKREVTIPPKYR [polypeptide of 18 amino acids] | can inhibit calpain; also recorded: still has activity; also recorded: inhibited calpain
3 | TYIEELGKREVTIPPKYRELL [polypeptide of 21 amino acids] | can inhibit calpain; also recorded: had calpastatin-like activity
4 | YIEELGKREVTIPPKYR [polypeptide with 17 amino acids, reference compound] | almost undetectable
